We go through 36 compounds from patent US8815882B2, “Pyrazole aminopyrimidine derivatives as LRRK2 modulators” (Genentech, Inc., priority 2010, dated 2014).

Structures are written as SMILES.

T1 sequence (Q5S007 whole entry G2019S): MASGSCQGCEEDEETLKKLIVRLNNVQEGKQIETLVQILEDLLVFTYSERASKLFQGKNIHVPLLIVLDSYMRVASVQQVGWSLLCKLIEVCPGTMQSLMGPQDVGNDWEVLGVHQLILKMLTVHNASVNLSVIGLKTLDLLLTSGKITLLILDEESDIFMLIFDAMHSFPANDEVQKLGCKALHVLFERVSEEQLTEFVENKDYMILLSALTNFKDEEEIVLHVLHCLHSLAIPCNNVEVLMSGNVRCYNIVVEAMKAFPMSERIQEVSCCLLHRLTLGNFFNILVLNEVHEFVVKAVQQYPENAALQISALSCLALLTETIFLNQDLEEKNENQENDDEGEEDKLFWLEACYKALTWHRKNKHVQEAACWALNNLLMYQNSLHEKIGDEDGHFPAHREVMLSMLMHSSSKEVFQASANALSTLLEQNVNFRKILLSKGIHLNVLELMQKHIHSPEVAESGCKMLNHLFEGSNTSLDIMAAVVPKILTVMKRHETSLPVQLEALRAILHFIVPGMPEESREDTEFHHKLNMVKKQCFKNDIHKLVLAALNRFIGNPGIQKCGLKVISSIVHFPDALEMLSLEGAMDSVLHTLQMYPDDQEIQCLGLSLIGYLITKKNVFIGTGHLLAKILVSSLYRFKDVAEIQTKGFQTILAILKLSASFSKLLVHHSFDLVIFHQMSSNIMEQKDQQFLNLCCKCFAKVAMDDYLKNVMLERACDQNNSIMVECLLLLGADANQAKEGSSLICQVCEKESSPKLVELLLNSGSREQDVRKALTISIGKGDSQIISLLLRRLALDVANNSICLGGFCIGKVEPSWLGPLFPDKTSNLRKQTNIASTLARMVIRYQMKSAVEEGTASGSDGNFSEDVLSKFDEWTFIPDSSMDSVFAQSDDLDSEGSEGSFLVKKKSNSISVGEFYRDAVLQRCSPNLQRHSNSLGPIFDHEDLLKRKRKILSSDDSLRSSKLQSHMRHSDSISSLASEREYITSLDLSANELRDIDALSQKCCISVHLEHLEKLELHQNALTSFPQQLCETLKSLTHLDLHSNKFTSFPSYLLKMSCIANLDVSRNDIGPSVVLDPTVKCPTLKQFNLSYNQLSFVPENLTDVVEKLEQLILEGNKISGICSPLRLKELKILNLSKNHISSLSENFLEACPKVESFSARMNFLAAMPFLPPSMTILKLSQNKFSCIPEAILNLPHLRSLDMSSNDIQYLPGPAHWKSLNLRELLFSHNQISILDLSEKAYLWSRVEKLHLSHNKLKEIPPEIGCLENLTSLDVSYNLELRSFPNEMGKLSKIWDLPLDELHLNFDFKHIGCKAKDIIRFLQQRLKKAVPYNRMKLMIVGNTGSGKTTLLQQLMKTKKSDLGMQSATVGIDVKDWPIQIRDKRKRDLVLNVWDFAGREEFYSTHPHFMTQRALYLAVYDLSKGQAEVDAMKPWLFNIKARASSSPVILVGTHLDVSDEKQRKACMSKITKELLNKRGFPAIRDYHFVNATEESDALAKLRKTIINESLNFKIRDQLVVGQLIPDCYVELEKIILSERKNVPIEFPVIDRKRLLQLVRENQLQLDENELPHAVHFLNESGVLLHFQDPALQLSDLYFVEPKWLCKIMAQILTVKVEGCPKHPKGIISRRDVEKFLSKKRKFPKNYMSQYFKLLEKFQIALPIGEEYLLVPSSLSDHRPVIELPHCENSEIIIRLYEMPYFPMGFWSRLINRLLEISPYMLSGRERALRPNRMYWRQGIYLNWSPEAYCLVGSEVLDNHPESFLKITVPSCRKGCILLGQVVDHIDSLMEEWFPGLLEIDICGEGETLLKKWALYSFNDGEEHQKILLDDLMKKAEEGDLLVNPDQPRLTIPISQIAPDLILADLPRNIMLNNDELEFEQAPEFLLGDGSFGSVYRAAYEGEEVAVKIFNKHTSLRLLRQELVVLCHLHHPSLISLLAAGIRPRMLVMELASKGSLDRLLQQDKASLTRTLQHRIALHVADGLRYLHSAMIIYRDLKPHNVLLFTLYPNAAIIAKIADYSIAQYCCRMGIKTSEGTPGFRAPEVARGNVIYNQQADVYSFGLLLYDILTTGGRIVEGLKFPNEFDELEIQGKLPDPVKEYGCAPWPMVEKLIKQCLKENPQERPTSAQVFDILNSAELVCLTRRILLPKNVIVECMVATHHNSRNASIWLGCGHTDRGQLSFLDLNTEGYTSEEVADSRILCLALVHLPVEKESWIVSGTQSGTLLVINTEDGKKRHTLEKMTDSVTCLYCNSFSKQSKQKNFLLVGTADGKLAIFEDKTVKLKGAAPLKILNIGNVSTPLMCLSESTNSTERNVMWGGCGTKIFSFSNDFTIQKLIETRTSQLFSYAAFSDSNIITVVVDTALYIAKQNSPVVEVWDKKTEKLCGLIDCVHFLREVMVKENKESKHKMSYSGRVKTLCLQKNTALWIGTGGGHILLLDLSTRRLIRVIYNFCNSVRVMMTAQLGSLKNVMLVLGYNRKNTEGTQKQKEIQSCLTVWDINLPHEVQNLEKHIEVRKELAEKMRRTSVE

The first assay has as its target T1, LRRK2 (Homo sapiens, UniProt Q5S007, G2019S).
T1 construct: purchased Invitrogen PV4882 (lot 567054A)
As to the kind of experiment: In Vitro LRRK2 Assay (LabChip 3000, fluorescently-labeled peptide substrate, ATP). Conditions: Table 9; LRRK2 Ki (micromolar); read-out: LRRK2 Ki (KI). It counts as biochemical. Summed up: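 LRRK2, fluorescent peptide substrate (diluted to 4 μM before mixing), ATP and compound were incubated 2 h in the dark, then stopped. Phosphorylated and unphosphorylated peptide were separated by capillary electrophoresis and quantified by fluorescence. Ki was fitted with a tight-binding equation including enzyme concentration, S and Km; IC50 or percent inhibition were also reported.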
For the compound `CNc1nc(Nc2cnn(-c3ccc(Cl)cc3)c2C)ncc1C#N` [Example 369, 2-(1-(4-chlorophenyl)-5-methyl-H-pyrazol-4-ylamino)-4-(methylamino) pyrimidine-5-carbonitrile], the Ki is 2.5 nM.

Regarding `Cc1c(Nc2ncc(C#N)c(NCC(F)(F)F)n2)cnn1C` [Example 376, 2-(1,5-dimethyl-1H-pyrazol-4-ylamino)-4-(2,2,2-trifluoroethylamino) pyrimidine-5-carbonitrile], the Ki is 27.5 nM.

For `CCn1ncc(Nc2ncc(C#N)c(OC)n2)c1C` [Example 377, 2-(1-ethyl-5-methyl-1H-pyrazol-4-ylamino)-4-methoxypyrimidine-5-carbonitrile], the Ki came out at 75 nM.

With `CCNc1nc(Nc2cnn(C3CCOCC3)c2C)ncc1C#N` [Example 371, 4-(ethylamino)-2-(5-methyl-1-(tetrahydro-2H-pyran-4-yl)-1H-pyrazol-4-ylamino) pyrimidine-5-carbonitrile], the inhibition constant (Ki) turned out to be 5.2 nM.

On to `CCCn1cc(Nc2ncc(C#N)c(NC)n2)c(C)n1` [Example 387, 4-Methylamino-2-(3-methyl-1-propyl-1H-pyrazol-4-ylamino)-pyrimidine-5-carbonitrile], for which the Ki worked out at 5.4 nM.

Still in this assay, the particulars now being: Table 10; LRRK2 Ki (micromolar); read-out: LRRK2 Ki (KI).
Turning to `COc1nc(Nc2cn(C(C)(C)C#N)nc2C2CC2)ncc1Cl` [Example 438, 2-[4-(5-Chloro-4-methoxy-pyrimidin-2-ylamino)-3-cyclopropyl-pyrazol-1-yl]-2-methyl-propionitrile], the Ki is 5.8 nM.

On to `CNc1nc(Nc2cn([C@H](C)C#N)nc2C)ncc1C(F)(F)F` [Example 437], for which the Ki stood at 6.5 nM.

On to `CCNC(=O)C(C)(C)n1cc(Nc2ncc(C(F)(F)F)c(NC)n2)c(C)n1` [Example 440, N-Ethyl-2-[3-methyl-4-(4-methylamino-5-trifluoromethyl-pyrimidin-2-ylamino)-pyrazol-1-yl]-isobutyramide], for which the Ki was determined as 9.5 nM.

Staying with this assay, now noted: read-out: LRRK2 Ki (KI), Table 7.
For `CNc1nc(Nc2cnn(CC(F)(F)F)c2C)ncc1C(F)(F)F` [Example 58, N^4-methyl-N^2-(5-methyl-1-(2,2,2-trifluoroethyl)-1H-pyrazol-4-yl)-5-(trifluoromethyl) pyrimidine-2,4-diamine], the Ki was 3.6 nM.

In the case of `Cc1c(Nc2ncc(C(F)(F)F)c(N3CCCC3)n2)cnn1C` [Example 13, N-(1,5-dimethyl-1H-pyrazol-4-yl)-4-(pyrrolidin-1-yl)-5-(trifluoromethyl) pyrimidin-2-amine], the Ki amounted to 12 nM.

Consider `COc1nc(Nc2cn(S(=O)(=O)C3CC3)nc2C)ncc1Cl` [Example 71, 5-chloro-N-(1-(cyclopropyl-sulfonyl)-3-methyl-1H-pyrazol-4-yl)-4-methoxy-pyrimidin-2-amine], for which the Ki was determined as 20 nM.

On to `COc1nc(Nc2cn(C)nc2C)ncc1Cl` [Example 15, 5-Chloro-N-(1,3-dimethyl-1H-pyrazol-4-yl)-4-methoxy-pyrimidin-2-amine], for which the Ki worked out at 14.4 nM.

`Cc1c(Nc2ncc(Cl)c(OC3COC3)n2)cnn1C` [Example 62, 5-chloro-N-(1,5-dimethyl-1H-pyrazol-4-yl)-4-(oxetan-3-yloxy)pyrimidin-2-amine]: the Ki came to 39 nM.

For the compound `CNc1nc(Nc2ccnn2C(C)C)ncc1C(F)(F)F` [Example 47, N^2-(1-isopropyl-1H-pyrazol-5-yl)-N^4-methyl-5-(trifluoromethyl) pyrimidine-2,4-diamine], the Ki is 112 nM.

With `CCNc1nc(Nc2cnn(C3CCN(CC4OCCO4)CC3)c2C)ncc1C(F)(F)F` [Example 87, N^2-[1-(1-[1,3]Dioxolan-2-ylmethyl-piperidin-4-yl)-5-methyl-1H-pyrazol-4-yl]-N^4-ethyl-5-trifluoromethyl-pyrimidine-2,4-diamine], the Ki amounted to 0.8 nM.

The assay is the same for the next values; noted with them: read-out: LRRK2 Ki (KI), Table 8.
Consider `CNc1nc(Nc2cn(S(=O)(=O)C3CC3)nc2C)ncc1C(F)(F)F` [Example 170, N2-(1-(cyclopropyl-sulfonyl)-3-methyl-1H-pyrazol-4-yl)-N4-methyl-5-(trifluoromethyl) pyrimidine-2,4-diamine], for which the Ki turned out to be 2 nM.

`CCNc1nc(Nc2cn(C(C)(C)c3nnc(C)[nH]3)nc2C)ncc1C(F)(F)F` [Example 331, N4-Ethyl-N2-{3-methyl-1-[1-methyl-1-(5-methyl-4H-[1,2,4]triazol-3-yl)-ethyl]-1H-pyrazol-4-yl}-5-trifluoromethyl-pyrimidine-2,4-diamine]: the Ki is 0.8 nM.

As for `CNc1nc(Nc2cn(-c3ccccc3)nc2C)ncc1Br` [Example 109, 5-bromo-N4-methyl-N2-(3-methyl-1-phenyl-1H-pyrazol-4-yl)pyrimidine-2,4-diamine], the Ki stood at 8.4 nM.

On to `CCNc1nc(Nc2cn(S(=O)(=O)C3CC3)nc2C)ncc1C(F)(F)F` [Example 171, N2-(1-(cyclopropyl-sulfonyl)-3-methyl-1H-pyrazol-4-yl)-N4-ethyl-5-(trifluoromethyl) pyrimidine-2,4-diamine], for which the Ki was 0.9 nM.

For `CNc1nc(Nc2cn(-c3ccccn3)nc2C)ncc1C(F)(F)F` [Example 117, N4-methyl-N2-(3-methyl-1-(pyridin-2-yl)-1H-pyrazol-4-yl)-5-(trifluoromethyl) pyrimidine-2,4-diamine], the Ki was found to be 6.7 nM.

Regarding `CNc1nc(Nc2cn(C3C[C@@H]4CC[C@@H](C3)O4)nc2C)ncc1C(F)(F)F` (stereo partly drawn) [Example 126, N2-(1-((1S,5S)-8-oxabicyclo[3.2.1]octan-3-yl)-3-methyl-1H-pyrazol-4-yl)-N4-methyl-5-(trifluoromethyl) pyrimidine-2,4-diamine], the Ki was found to be 113 nM.

Turning to `CNc1nc(Nc2cnn(C3CCN(C(=O)C4CC4)CC3)c2C)ncc1C(F)(F)F` [Example 135, cyclopropyl(4-(5-methyl-4-(4-(methylamino)-5-(trifluoromethyl)pyrimidin-2-ylamino)-1H-pyrazol-1-yl)piperidin-1-yl)methanone], the Ki turned out to be 1 nM.

In the case of `CNc1nc(Nc2cnn(C3CCN(C)CC3F)c2Cl)ncc1C(F)(F)F` (stereo not drawn) [Example 241, N2-(5-chloro-1-(3-fluoro-1-methylpiperidin-4-yl)-1H-pyrazol-4-yl)-N4-methyl-5-(trifluoromethyl) pyrimidine-2,4-diamine], the Ki was 1.8 nM.

Turning to `CCNc1nc(Nc2cn(C3CCN(C)CC3)nc2C)ncc1C(F)(F)F` [Example 208, N4-ethyl-N2-(3-methyl-1-(1-methylpiperidin-4-yl)-1H-pyrazol-4-yl)-5-(trifluoromethyl) pyrimidine-2,4-diamine], the Ki came out at 10.2 nM.

For `CNc1nc(Nc2cnn(C3CCOCC3)c2Cl)ncc1C(F)(F)F` [Example 226, N2-(5-chloro-1-(tetrahydro-2H-pyran-4-yl)-1H-pyrazol-4-yl)-N4-methyl-5-(trifluoromethyl) pyrimidine-2,4-diamine], the Ki was determined as 0.7 nM.

For `CNc1nc(Nc2cnn([C@H](C)COC)c2C)ncc1C(F)(F)F` [Example 205, (R)-N2-(1-(1-methoxypropan-2-yl)-5-methyl-1H-pyrazol-4-yl)-N4-methyl-5-(trifluoromethyl) pyrimidine-2,4-diamine], the Ki was found to be 19 nM.

Regarding `CNc1nc(Nc2cnn(Cc3ccccn3)c2C)ncc1C(F)(F)F` [Example 212, N4-methyl-N2-(5-methyl-1-(pyridin-2-ylmethyl)-1H-pyrazol-4-yl)-5-(trifluoromethyl) pyrimidine-2,4-diamine], the Ki turned out to be 2.9 nM.

Turning to `CNc1nc(Nc2cnn(CC3(C)COC3)c2Cl)ncc1C(F)(F)F` [Example 180, N2-(5-chloro-1-((3-methyloxetan-3-yl)methyl)-1H-pyrazol-4-yl)-N4-methyl-5-(trifluoromethyl) pyrimidine-2,4-diamine], the Ki was 5.6 nM.

As for `CNc1nc(Nc2cnn(-c3ccc(Cl)cc3)c2C)ncc1Br` [Example 122, 5-bromo-N2-(1-(4-chlorophenyl)-5-methyl-1H-pyrazol-4-yl)-N4-methylpyrimidine-2,4-diamine], the Ki came to 14 nM.

Turning to `CNc1nc(Nc2cnn(CC(C)(C)O)c2C(F)(F)F)ncc1C(F)(F)F` [Example 197, 2-methyl-1-(4-(4-(methylamino)-5-(trifluoromethyl)pyrimidin-2-ylamino)-5-(trifluoromethyl)-1H-pyrazol-1-yl)propan-2-ol], the Ki amounted to 26 nM.

For the compound `CNc1nc(Nc2cn(C(C)c3ccccn3)nc2C)ncc1C(F)(F)F` (stereo not drawn) [Example 224, N4-methyl-N2-(3-methyl-1-(1-(pyridin-2-yl)ethyl)-1H-pyrazol-4-yl)-5-(trifluoromethyl) pyrimidine-2,4-diamine], the Ki turned out to be 2.4 nM.

Turning to `CNc1nc(Nc2cnn(S(C)(=O)=O)c2C)ncc1C(F)(F)F` [Example 195, N4-methyl-N2-(5-methyl-1-(methylsulfonyl)-1H-pyrazol-4-yl)-5-(trifluoromethyl) pyrimidine-2,4-diamine], the Ki was found to be 10 nM.

As to `CNc1nc(Nc2cnn(C(C)C)c2Cl)ncc1C(F)(F)F` [Example 138, N2-(5-chloro-1-isopropyl-1H-pyrazol-4-yl)-N4-methyl-5-(trifluoromethyl) pyrimidine-2,4-diamine], the Ki came to 1.1 nM.

For the compound `CCS(=O)(=O)n1ncc(Nc2ncc(C(F)(F)F)c(NC)n2)c1C` [Example 287, N2-(1-Ethanesulfonyl-5-methyl-1H-pyrazol-4-yl)-N4-methyl-5-trifluoromethyl-pyrimidine-2,4-diamine], the Ki stood at 7.2 nM.

As to `CNc1nc(Nc2cn(CC3(C)COC3)nc2C)ncc1C(F)(F)F` [Example 118, N4-methyl-N2-(3-methyl-1-((3-methyloxetan-3-yl)methyl)-1H-pyrazol-4-yl)-5-(trifluoromethyl) pyrimidine-2,4-diamine], the Ki was found to be 7.2 nM.

Staying with this assay, now noted: read-out: LRRK2 Ki given in the example.
`CNc1nc(Nc2cc(C(=O)N3CCOCC3)nn2C)ncc1Cl` [Example 393, (5-(5-chloro-4-(methylamino)pyrimidin-2-ylamino)-1-methyl-1H-pyrazol-3-yl)(morpholino)methanone]: the Ki amounted to 160 nM.

In general, Ki refers to a measure of affinity in units of concentration, obtained from inhibition or displacement.
